Assay results: patent publication US11903386B2, “Strigolactone analogs and their usage in plant control” (King Abdullah University of Science and Technology, priority 2016, dated 2024)

Legend:
rice d10 mutant = assay: Rice micro tillering bioassay, d10 mutant; format: in vivo; conditions: 2.5 μM, hydroponic culture; untreated (Mock) 4 tillers per plant
Method: (§1) Rice seeds (WT, d3, d10) were surface-sterilized by washing with 70% ethanol for 1 min and then with 2.5% sodium hypochlorite for 15 min. Seeds were then rinsed thoroughly with sterile MilliQ water and incubated in water for 2 days at 30° C. in the dark. Pre-germinated seeds were transferred to filter papers containing ½ strength MS medium in 90 mm petri dishes and incubated at 30° C. under fluorescent white light (130-180 μM m^−2 s^−1) for one week. Seven day-old seedlings were transferred to 50 ml falcon tubes (one seedling per tube) containing modified half-strength Hoagland nutrient solution and grown in greenhouse. Plants were treated with MPs at 2.5 μM-2.5×10-7 μM, using GR24 as positive control. The compounds were applied six times, twice a week. Number of tillers per plant, plant height and fresh biomass were measured at final harvest.
Statistical analyses were carried out using statistical software package R (version 3.2.2). Dose-response curves and Half Maximum Effective Concentrations (EC50) were calculated to determine optimum amount of MPs. Synthetic strigolactone analog GR24 was used as reference to estimate efficacy of selected compounds. EC50 and estimated response were calculated using drc package (https://cran.r390 project.org/web/packages/drc/) with a Four Parameter Logistic Curve (Dose Response Curve) (Ritz and Streibig, 2005).

rice d3 mutant = assay: Rice micro tillering bioassay, SL insensitive d3 mutant; format: in vivo; conditions: 2.5 μM, hydroponic culture
Method: as §1

rice leaf segments = assay: Dark-induced leaf senescence of rice leaf segments; format: in vivo, O. sativa, var. Shiokari
Method: One week old rice (O. sativa, var. Shiokari) seedlings were established as mentioned above. Uniform seedlings were transferred to 50 ml tubes containing half strength Hoaglands nutrient solution for 7 days and grown in an incubator under white fluorescent light (130-180 μM m^−2 s^−1) with 16 h:8 h (L/D) at 28° C. for one week. Leaf segments of 2 cm were cut from middle part of third leaves of rice plants. Each segment was put in a well (in 24-well plates) containing 2 ml of 2.5 mM MES buffer with 0.05% Tween-20, and incubated at 30° C. in the dark for 7 days. After application of MPs, color change, chlorophyll content, ion leakage and gene expression were monitored daily for 7 days.

ShHTL7 [1] = molecular target: T1, ShHTL7 (Striga hermonthica, UniProt A0A0M3PNA2); assay: Intrinsic tryptophan fluorescence assay; format: binding; conditions: ShHTL7 10 μM, mean±SE (n=3); read-out: Kd, affinity of ShHTL7
T1 sequence (A0A0M3PNA2 1-271): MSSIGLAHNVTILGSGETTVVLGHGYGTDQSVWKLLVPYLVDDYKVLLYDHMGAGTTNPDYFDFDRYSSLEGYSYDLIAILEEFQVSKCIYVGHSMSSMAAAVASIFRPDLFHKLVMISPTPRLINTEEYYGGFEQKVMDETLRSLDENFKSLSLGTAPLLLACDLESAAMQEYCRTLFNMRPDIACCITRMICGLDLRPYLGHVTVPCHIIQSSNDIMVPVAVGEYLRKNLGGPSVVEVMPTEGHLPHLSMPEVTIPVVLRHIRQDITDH
Description: (§2) Striga hermonthica ShHTL7 cDNA, GenBank accession KR013127 was kindly provided by Prof. Tadao Asami (The University of Tokyo, Japan). Arabidopsis thaliana D14 (AtD14) cDNA, GenBank accession AY097402 was synthesized and cloned into pUC57 (GenScript). ShHTL7 and OsD14 cDNAs were amplified by RT-PCR using the primers shown in Table 2, digested with BamHI and XhoI, and ligated into BamHI/XhoI digested pGEX-6P-1 expression vector (GE Healthcare). Integrity of plasmids was confirmed by sequencing (KAUST Bioscience Core Lab). The plasmids were then transformed into E. coli BL21 (DE3) cells. The cells were grown in LB broth containing ampicillin ([…]), incubated at 37° C. until OD600 of 0.6 and induced with 0.1 mM isopropyl-β-D-thiogalactopyranoside (IPTG) at 16° C. for 16 h. Harvested cells were re-suspended in lysis buffer: 50 mM Tris-HCl (pH 8.0), 200 mM NaCl, 0.5% Tween-20 and 2 mM dithiothreitol (DTT). After sonication on ice for 10 mins, the lysate was centrifuged at 25,000 rpm for 30 min at 4° C. Supernatant was allowed to bind to glutathione-sepharose beads (GE Healthcare) for 2 h at 4° C., washed 3 times with buffer (50 mM Tris-HCl (pH 8.0), 200 mM NaCl, 2 mM DTT), and eluted by cleaving GST moiety with PreScission™ Protease (GE Healthcare) at 4° C. overnight. Eluted protein was further purified by gel filtration using HiLoad 16/60 Superdex200 prep grade column (GE Healthcare) on an AKTA prime system (GE Healthcare) in gel filtration buffer (10 mM HEPES pH 7.5, 50 mM KCl and 2 mM DTT). Protein eluted as a sharp single peak and purity was judged by 4-15% SDS-PAGE (Bio-Rad). Purified protein was concentrated using an Amicon 10K filter unit (Merck Millipore) and stored at −80° C. until use. Similar expression and purification protocol was followed for OsD14 protein, except that OsD14 was eluted from Glutathione resins using 0.2 mM reduced Glutathione (Sigma) without cutting GST tag.
ShHTL7 tryptophans were excited at 280 nm and […] emission intensity was measured at 333 nm. ShHTL7 (10 μM) was incubated at various dilutions (0.2, 0.4, 0.8, 1.6, 3.12, 6.25, 12.5, 25 and 50 μM) of GR24 and MPs for 30 minutes at room temperature before measurement. Each concentration point was measured in triplicates. Emitted fluorescence was monitored using spectraMaxi3 (Molecular Devices) plate reader in 96-wells black plates. Changes in tryptophan fluorescence intensity occur due to conformational changes in protein when it is bound to ligand; differences in fluorescence intensity were recorded and analyzed. Data were normalized and dissociation coefficient (Kd) values were calculated by fitting to a binding saturation single-site model with GraphPad (PRISM 6).

OsD14 = molecular target: T2, OsD14 (Oryza sativa subsp. japonica, UniProt Q10QA5); assay: YLG (Yoshimulactone Green) competitive hydrolysis assay; format: biochemical, rice; conditions: with SE (n=3); read-out: IC50, competitive inhibition of OsD14 mediated YLG hydrolysis
T2 construct: made in house; host or cells: E. coli BL21 (DE3)
T2 sequence (Q10QA5 1-318): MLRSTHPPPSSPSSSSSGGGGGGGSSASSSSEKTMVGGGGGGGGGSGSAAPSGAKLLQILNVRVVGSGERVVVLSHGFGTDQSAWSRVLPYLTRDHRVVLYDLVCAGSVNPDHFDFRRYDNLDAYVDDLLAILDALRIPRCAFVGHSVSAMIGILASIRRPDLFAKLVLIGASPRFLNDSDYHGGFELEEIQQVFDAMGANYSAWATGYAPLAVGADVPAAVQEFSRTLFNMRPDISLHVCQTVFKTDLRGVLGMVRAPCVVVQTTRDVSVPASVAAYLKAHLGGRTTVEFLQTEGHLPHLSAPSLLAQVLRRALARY
Description: as §2
In vitro YLG hydrolysis assays were performed as described by Tsuchiya et al., 2015. Hydrolysis assays were carried out using 0.15 μM of recombinant protein OsD14 in a reaction buffer (100 mM PBS buffer, pH 7.3) with 0.1% dimethylsulfoxide (DMSO) at a 300 μl volume on a 96-well black plate (Thermo). For competitive assays, (±) GR24 and (±) MPs at range between 0.03 to 10 μM (or 100 μM) were co-incubated with 0.3 μM of YLG and reacted at 30° C. incubator for 15 min. Fluorescent intensity was measured with excitation at 485 nm and detected at 535 nm. IC50 values were calculated online (http://www.ic50.tk/index.html). Later, values were converted to the existing conditions when treated by 1.0 μM of recombinant proteins.

ShHTL7 [2] = molecular target: T1, ShHTL7; assay: In vitro hydrolysis assay with ShHTL7 (HPLC); format: biochemical; conditions: 10 μM substrate, 37° C.
S. hermonthica = conditions: in vivo; cited from earlier work
P. ramosa = conditions: in vivo; cited from earlier work
Orobanche ramosa = conditions: tobacco field; cited from earlier work
parasite seed = conditions: in vivo; cited from earlier work

## CC1=C[C@H](O/C=C2/C(=O)O[C@@H]3c4ccccc4C[C@H]23)OC1=O [GR24, reference compound]
Rice d10 mutant
  Number of tillers per plant, d10 mutant: 1 tiller per plant
Rice d3 mutant
  High-tillering phenotype of d3 mutant (tillers per plant): neither MPs nor GR24 could restore the high-tillering phenotype
Rice leaf segments; after 5 days of treatment
  Transcript levels of Senescence Associated Genes Osl20 and Osl295: striking increase in their transcripts
Rice leaf segments; dark, leaf segments
  Change in leaf color, time relative to control: about two days earlier than the control
Rice leaf segments; dark, leaf segments monitored 7 days
  Change in leaf color, day observed: already on the third day after treatment
Rice leaf segments; first five days
  Ion leakage compared to the control: did not detect a difference
Rice leaf segments; sixth and seventh day
  Ion leakage compared to the control: striking increase
Rice leaf segments; third day
  Chlorophyll content: clear reduction
ShHTL7 [1]
  Kd: 0.44 ± 0.21 µM
OsD14
  IC50: 5.68 ± 0.183 µM
ShHTL7 [2]
  Hydrolysis rate by ShHTL7: followed by MP7, GR24

## COC(=O)/C(=C/O[C@H]1C=C(C)C(=O)O1)N1C(=O)c2ccccc2C1=O [Nijmegen-1]
S. hermonthica
  Activity in S. hermonthica seed germination: weak germination response
  EC50 relative to GR24, orders of magnitude higher: 3 orders of magnitude
P. ramosa
  Induction of seed germination in P. ramosa: potent inducer
Orobanche ramosa
  Result of suicidal germination field trial: very promising results

## CC1=CC(Oc2ccc(Br)cc2)OC1=O (stereo not shown) [4-Br debranone]
Parasite seed
  Activity in inducing parasite seed germination: moderate activity in inducing seed germination
